Like-named read-outs stand apart in the source and are kept apart here.
What was measured:
[1] = assay type: physicochemical; details: for Stability in Powder Concentrate (content by LCMSMS): stored at room temperature (21-25° C.)
Protocol: At each time period, 0.05 g of powder was dissolved in 10 ml-15 of ethanol, diluted to fall within the analytical range, and injected into the LCMSMS for analysis.

[2] = Stability of cannabinoid and Vitamin E components of Beverage 1 (AB White) stored at 8° C. and 21-25° C., LCMSMS over 570 days; assay type: physicochemical; details: for Storage time after which slight degradation / significant losses are seen: AB White; for Stability in AB White, 8° C. (content by LCMSMS): beverage stored at 8° C.
Protocol: The LCMSMS was calibrated for 0-1000 ng/ml cannabinoids with the same resin material used in the preparation of the concentrates. At each time period, 100 ml of beverage was diluted with 10 ml of methanol and injected into the LCMSMS for analysis.

[3] = Stability of cannabinoid and Vitamin E components of Beverage 2 (AB Red) stored at 8° C. and 21-25° C., LCMSMS over 570 days; details: AB Red
Protocol: The LCMSMS was calibrated for 0-50 ng/ml cannabinoids with the same resin material used in the preparation of the concentrates. At each time period, 100 μml of beverage was diluted with 10 ml of methanol and injected into the LCMSMS for analysis.

C=C(C)[C@@H]1CCC(C)=C[C@H]1c1c(O)cc(CCCCC)cc1O [CBD, cannabidiol, reference compound]
Chemical stability over the entire period (result in words) ([1]; powder concentrate, room temperature (21-25° C.), 570 days): no significant degradation
Stability in Powder Concentrate (content by LCMSMS) ([1]; day 0): 5.85 mg/g powder
Stability in Powder Concentrate (content by LCMSMS) ([1]; day 1): 5.69 mg/g powder
Stability in Powder Concentrate (content by LCMSMS) ([1]; day 2): 5.76 mg/g powder
Stability in Powder Concentrate (content by LCMSMS) ([1]; day 3): 5.81 mg/g powder
Stability in Powder Concentrate (content by LCMSMS) ([1]; day 5): 5.84 mg/g powder
Stability in Powder Concentrate (content by LCMSMS) ([1]; day 8): 5.91 mg/g powder
Stability in Powder Concentrate (content by LCMSMS) ([1]; day 9): 6.01 mg/g powder
Stability in Powder Concentrate (content by LCMSMS) ([1]; day 10): 5.69 mg/g powder
Stability in Powder Concentrate (content by LCMSMS) ([1]; day 11): 6.00 mg/g powder
Stability in Powder Concentrate (content by LCMSMS) ([1]; day 12): 5.76 mg/g powder
Stability in Powder Concentrate (content by LCMSMS) ([1]; day 15): 5.85 mg/g powder
Stability in Powder Concentrate (content by LCMSMS) ([1]; day 16): 5.97 mg/g powder
Stability in Powder Concentrate (content by LCMSMS) ([1]; day 17): 5.97 mg/g powder
Stability in Powder Concentrate (content by LCMSMS) ([1]; day 18): 6.01 mg/g powder
Stability in Powder Concentrate (content by LCMSMS) ([1]; day 19): 5.74 mg/g powder
Stability in Powder Concentrate (content by LCMSMS) ([1]; day 22): 5.84 mg/g powder
Stability in Powder Concentrate (content by LCMSMS) ([1]; day 23): 6.10 mg/g powder
Stability in Powder Concentrate (content by LCMSMS) ([1]; day 24): 5.89 mg/g powder
Stability in Powder Concentrate (content by LCMSMS) ([1]; day 25): 6.01 mg/g powder
Stability in Powder Concentrate (content by LCMSMS) ([1]; day 26): 6.00 mg/g powder
Stability in Powder Concentrate (content by LCMSMS) ([1]; day 29): 5.97 mg/g powder
Stability in Powder Concentrate (content by LCMSMS) ([1]; day 30): 5.94 mg/g powder
Stability in Powder Concentrate (content by LCMSMS) ([1]; day 60): 5.66 mg/g powder
Stability in Powder Concentrate (content by LCMSMS) ([1]; day 90): 6.00 mg/g powder
Stability in Powder Concentrate (content by LCMSMS) ([1]; day 120): 5.80 mg/g powder
Stability in Powder Concentrate (content by LCMSMS) ([1]; day 150): 5.65 mg/g powder
Stability in Powder Concentrate (content by LCMSMS) ([1]; day 180): 5.93 mg/g powder
Stability in Powder Concentrate (content by LCMSMS) ([1]; day 210): 5.83 mg/g powder
Stability in Powder Concentrate (content by LCMSMS) ([1]; day 240): 5.98 mg/g powder
Stability in Powder Concentrate (content by LCMSMS) ([1]; day 270): 5.72 mg/g powder
Stability in Powder Concentrate (content by LCMSMS) ([1]; day 300): 5.84 mg/g powder
Stability in Powder Concentrate (content by LCMSMS) ([1]; day 330): 6.01 mg/g powder
Stability in Powder Concentrate (content by LCMSMS) ([1]; day 360): 5.97 mg/g powder
Stability in Powder Concentrate (content by LCMSMS) ([1]; day 390): 5.93 mg/g powder
Stability in Powder Concentrate (content by LCMSMS) ([1]; day 420): 5.94 mg/g powder
Stability in Powder Concentrate (content by LCMSMS) ([1]; day 450): 5.65 mg/g powder
Stability in Powder Concentrate (content by LCMSMS) ([1]; day 480): 5.66 mg/g powder
Stability in Powder Concentrate (content by LCMSMS) ([1]; day 510): 6.01 mg/g powder
Stability in Powder Concentrate (content by LCMSMS) ([1]; day 540): 5.81 mg/g powder
Stability in Powder Concentrate (content by LCMSMS) ([1]; day 570): 5.85 mg/g powder
Storage time after which slight degradation / significant losses are seen ([2]; stored at 8° C.): > 480 days
Storage time after which slight degradation / significant losses are seen ([2]; stored at 21-25° C.): > 390 days
Stability in AB White, 8° C. (content by LCMSMS) ([2]; day 0): 28.5 µg/mL
Stability in AB White, 8° C. (content by LCMSMS) ([2]; day 1): 27.65 µg/mL
Stability in AB White, 8° C. (content by LCMSMS) ([2]; day 2): 27.67 µg/mL
Stability in AB White, 8° C. (content by LCMSMS) ([2]; day 3): 27.96 µg/mL
Stability in AB White, 8° C. (content by LCMSMS) ([2]; day 5): 28.61 µg/mL
Stability in AB White, 8° C. (content by LCMSMS) ([2]; day 8): 28.47 µg/mL
Stability in AB White, 8° C. (content by LCMSMS) ([2]; day 9): 28.44 µg/mL
Stability in AB White, 8° C. (content by LCMSMS) ([2]; day 10): 27.87 µg/mL
Stability in AB White, 8° C. (content by LCMSMS) ([2]; day 11): 28.13 µg/mL
Stability in AB White, 8° C. (content by LCMSMS) ([2]; day 12): 28.10 µg/mL
Stability in AB White, 8° C. (content by LCMSMS) ([2]; day 15): 27.99 µg/mL
Stability in AB White, 8° C. (content by LCMSMS) ([2]; day 16): 28.04 µg/mL
Stability in AB White, 8° C. (content by LCMSMS) ([2]; day 17): 27.84 µg/mL
Stability in AB White, 8° C. (content by LCMSMS) ([2]; day 18): 27.87 µg/mL
Stability in AB White, 8° C. (content by LCMSMS) ([2]; day 19): 28.36 µg/mL
Stability in AB White, 8° C. (content by LCMSMS) ([2]; day 22): 28.50 µg/mL
Stability in AB White, 8° C. (content by LCMSMS) ([2]; day 23): 27.67 µg/mL
Stability in AB White, 8° C. (content by LCMSMS) ([2]; day 24): 28.44 µg/mL
Stability in AB White, 8° C. (content by LCMSMS) ([2]; day 25): 27.65 µg/mL
Stability in AB White, 8° C. (content by LCMSMS) ([2]; day 26): 27.73 µg/mL
Stability in AB White, 8° C. (content by LCMSMS) ([2]; day 29): 28.24 µg/mL
Stability in AB White, 8° C. (content by LCMSMS) ([2]; day 30): 27.93 µg/mL
Stability in AB White, 8° C. (content by LCMSMS) ([2]; day 60): 27.73 µg/mL
Stability in AB White, 8° C. (content by LCMSMS) ([2]; day 90): 27.87 µg/mL
Stability in AB White, 8° C. (content by LCMSMS) ([2]; day 120): 27.39 µg/mL
Stability in AB White, 8° C. (content by LCMSMS) ([2]; day 150): 28.59 µg/mL
Stability in AB White, 8° C. (content by LCMSMS) ([2]; day 180): 27.59 µg/mL
Stability in AB White, 8° C. (content by LCMSMS) ([2]; day 210): 27.76 µg/mL
Stability in AB White, 8° C. (content by LCMSMS) ([2]; day 240): 27.79 µg/mL
Stability in AB White, 8° C. (content by LCMSMS) ([2]; day 270): 28.07 µg/mL
Stability in AB White, 8° C. (content by LCMSMS) ([2]; day 300): 27.96 µg/mL
Stability in AB White, 8° C. (content by LCMSMS) ([2]; day 330): 27.33 µg/mL
Stability in AB White, 8° C. (content by LCMSMS) ([2]; day 360): 27.79 µg/mL
Stability in AB White, 8° C. (content by LCMSMS) ([2]; day 390): 27.50 µg/mL
Stability in AB White, 8° C. (content by LCMSMS) ([2]; day 420): 27.50 µg/mL
Stability in AB White, 8° C. (content by LCMSMS) ([2]; day 480): 27.13 µg/mL
Stability in AB White, 8° C. (content by LCMSMS) ([2]; day 510): 26.48 µg/mL
Stability in AB White, 8° C. (content by LCMSMS) ([2]; day 540): 26.51 µg/mL
Stability in AB White, 8° C. (content by LCMSMS) ([2]; day 570): 26.22 µg/mL
Storage time after which slight degradation / significant losses are seen ([3]; stored at 8° C.): > 420 days
Storage time after which slight degradation / significant losses are seen ([3]; stored at 21-25° C.): > 390 days

Source: US20240415914A1, “Water Dispersible Cannabinoid Compositions” (priority 2021, published 2024)
